Experimental data published in patent publication US8354441B2, “Oxazoline derivatives” (Hoffmann-La Roche Inc., priority 2009, dated 2013).

Experiments:
rat TAAR1 = target: T1, rat TAAR1 (Rattus norvegicus, UniProt Q923Y9); assay: TAAR1 radioligand binding with [3H]-rac-2-(1,2,3,4-tetrahydro-1-naphthyl)-2-imidazoline, membranes of stably transfected HEK293 cells; conditions: second value of the cell, read-out: Ki (μM) mouse/rat: rat
T1 construct: expressed in transfected cells; host or cells: HEK293 (ATCC # CRL-1573), stably transfected with pIRESneo2 expression plasmid
Experimental: (§1) For the construction of expression plasmids the coding sequences of human, rat and mouse TAAR 1 were amplified from genomic DNA essentially as described by Lindemann et al.. The Expand High Fidelity PCR System (Roche Diagnostics) was used with 1.5 mM Mg^2+ and purified PCR products were cloned into pCR2.1-TOPO cloning vector (Invitrogen) following the instructions of the manufacturer. PCR products were subcloned into the pIRESneo2 vector (BD Clontech, Palo Alto, Calif.), and expression vectors were sequence verified before introduction in cell lines.
(§2) HEK293 cells (ATCC # CRL-1573) were cultured essentially as described by Lindemann et al. (2005). For the generation of stably transfected cell lines HEK293 cells were transfected with the pIRESneo2 expression plasmids containing the TAAR coding sequences (described above) with Lipofectamine 2000 (Invitrogen) according to the instructions of the manufacturer, and 24 hrs post transfection the culture medium was supplemented with 1 mg/ml G418 (Sigma, Buchs, Switzerland). After a culture period of about 10 d clones were isolated, expanded and tested for responsiveness to trace amines (all compounds purchased from Sigma) with the cAMP Biotrak Enzyme immunoassay (EIA) System (Amersham) following the non-acetylation EIA procedure provided by the manufacturer.
(§3) Cells at confluence were rinsed with ice-cold phosphate buffered saline without Ca^2+ and Mg^2+ containing 10 mM EDTA and pelleted by centrifugation at 1000 rpm for 5 min at 4° C. The pellet was then washed twice with ice-cold phosphate buffered saline and the cell pellet was frozen immediately by immersion in liquid nitrogen and stored until use at −80° C. The cell pellet was then suspended in 20 ml HEPES-NaOH (20 mM), pH 7.4 containing 10 mM EDTA, and homogenized with a Polytron (PT 3000, Kinematica) at 10,000 rpm for 10 s. The homogenate was centrifuged at 48,000×g for 30 min at 4° C. and the pellet resuspended in 20 ml HEPES-NaOH (20 mM), pH 7.4 containing 0.1 mM EDTA (buffer A), and homogenized with a Polytron at 10,000 rpm for 10 s. The homogenate was then centrifuged at 48,000×g for 30 min at 4° C. and the pellet resuspended in 20 ml buffer A, and homogenized with a Polytron at 10,000 rpm for 10 s. Protein concentration was determined by the method of Pierce (Rockford, Ill.). The homogenate was then centrifuged at 48,000×g for 10 min at 4° C., resuspended in HEPES-NaOH (20 mM), pH 7.0 including MgCl2 (10 mM) and […] homogenized with a Polytron at 10,000 rpm for 10 s.
(§4) The binding assay was performed at 4° C. in a final volume of 1 ml, and with an incubation time of 30 min. The radioligand [^3H]-rac-2-(1,2,3,4-tetrahydro-1-naphthyl)-2-imidazoline was used at a concentration equal to the calculated Kd value of 60 nM to give a bound at around 0.1% of the total added radioligand concentration, and a specific binding which represented approximately 70-80% of the total binding. Non-specific binding was defined as the amount of [^3H]-rac-2-(1,2,3,4-tetrahydro-1-naphthyl)-2-imidazoline bound in the presence of the appropriate unlabelled ligand (10 μM). Competing ligands were tested in a wide range of concentrations (10 pM-30 μM). […] Each experiment was performed in duplicate. All incubations were terminated by rapid filtration through UniFilter-96 plates (Packard Instrument Company) and glass filter GF/C, pre-soaked for at least 2 h in polyethylenimine 0.3%, and using a Filtermate 96 Cell Harvester (Packard Instrument Company). The tubes and filters were then washed 3 times with 1 ml aliquots of cold buffer B. Filters were not dried and soaked in Ultima gold (45 μl/well, Packard Instrument Company) and bound radioactivity was counted by a TopCount Microplate Scintillation Counter (Packard Instrument Company).

mouse TAAR1 = target: T2, mouse TAAR1 (Mus musculus, UniProt Q923Y8); assay: as above; conditions: first value of the cell, read-out: Ki (μM) mouse/rat: mouse
T2 construct: expressed in transfected cells; host or cells: HEK293 (ATCC # CRL-1573), stably transfected with pIRESneo2 expression plasmid
Experimental: as §1, §2, §3, §4

T1 sequence (Q923Y9 whole entry): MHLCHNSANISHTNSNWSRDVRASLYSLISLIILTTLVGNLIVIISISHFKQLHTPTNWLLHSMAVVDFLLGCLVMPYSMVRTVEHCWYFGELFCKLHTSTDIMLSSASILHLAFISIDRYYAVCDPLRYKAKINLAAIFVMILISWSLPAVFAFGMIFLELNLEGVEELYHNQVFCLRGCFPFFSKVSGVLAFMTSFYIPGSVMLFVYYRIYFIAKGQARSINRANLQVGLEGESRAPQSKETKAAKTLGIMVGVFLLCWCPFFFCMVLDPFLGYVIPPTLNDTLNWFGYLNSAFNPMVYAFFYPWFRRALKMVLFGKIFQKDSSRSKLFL
T2 sequence (Q923Y8 whole entry): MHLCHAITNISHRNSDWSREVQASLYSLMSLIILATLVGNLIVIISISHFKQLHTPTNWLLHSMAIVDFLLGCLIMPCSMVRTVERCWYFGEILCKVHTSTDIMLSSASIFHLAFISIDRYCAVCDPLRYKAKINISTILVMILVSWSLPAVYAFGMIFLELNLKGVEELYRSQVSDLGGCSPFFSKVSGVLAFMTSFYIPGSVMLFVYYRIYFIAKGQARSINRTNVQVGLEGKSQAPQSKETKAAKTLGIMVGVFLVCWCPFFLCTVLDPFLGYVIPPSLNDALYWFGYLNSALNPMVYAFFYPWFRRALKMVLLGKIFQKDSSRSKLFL

| Ki (rat TAAR1) [µM] | Ki (mouse TAAR1) [µM] | Compound |
| --- | --- | --- |
| 0.0007 | 0.0014 | CC(C(=O)Nc1ccc(CC[C@H]2COC(N)=N2)cc1)c1ccc(Cl)cc1 (stereo partly drawn) [Example 58, N-{4-[2-((S)-2-Amino-4,5-dihydro-oxazol-4-yl)-ethyl]-phenyl}-2-(4-chloro-phenyl)-propionamide] |
| 0.0051 | 0.0057 | NC1=N[C@@H](CCc2ccc(NC(=O)C3CCC(C(F)(F)F)CC3)cc2)CO1 (stereo partly drawn) [Example 79, 4-Trifluoromethyl-cyclohexanecarboxylic acid {4-[2-((S)-2-amino-4,5-dihydro-oxazol-4-yl)-ethyl]-phenyl}-amide] |
| 0.0014 | 0.0008 | CCc1nc(OC)cc(C(=O)Nc2ccc(CC[C@H]3COC(N)=N3)cc2)n1 [Example 203, 2-Ethyl-6-methoxy-pyrimidine-4-carboxylic acid {4-[2-((S)-2-amino-4,5-dihydro-oxazol-4-yl)-ethyl]-phenyl}-amide] |
| 0.004 | 0.0071 | Cc1ocnc1C(=O)Nc1ccc(CC[C@@H]2N=C(N)O[C@H]2C)cc1 [Example 222, 5-Methyl-oxazole-4-carboxylic acid {4-[2-((4S,5S)-2-amino-5-methyl-4,5-dihydro-oxazol-4-yl)-ethyl]-phenyl}-amide] |
| 0.0021 | 0.0042 | Cc1ocnc1C(=O)Nc1ccc(CC[C@H]2COC(N)=N2)cc1 [Example 191, (S)-N-(4-(2-(2-Amino-4,5-dihydrooxazol-4-yl)ethyl)phenyl)-5-methyloxazole-4-carboxamide] |
| 0.0005 | 0.0003 | C#Cc1ccc(C(=O)Nc2ccc(CC[C@H]3COC(N)=N3)cc2)cc1 [Example 62, N-{4-[2-((S)-2-Amino-4,5-dihydro-oxazol-4-yl)-ethyl]-phenyl}-4-ethynyl-benzamide] |
| 0.0059 | 0.007 | CCc1cnc(C(=O)Nc2ccc(CC[C@@H]3N=C(N)O[C@H]3C)cc2)cn1 [Example 227, 5-Ethyl-pyrazine-2-carboxylic acid {4-[2-((4S,5S)-2-amino-5-methyl-4,5-dihydro-oxazol-4-yl)-ethyl]-phenyl}-amide] |
| 0.003 | 0.0025 | NC1=N[C@@H](CCc2ccc(NC(=O)c3ccc(C(F)(F)F)nc3)cc2)CO1 [Example 55, N-{4-[2-((S)-2-Amino-4,5-dihydro-oxazol-4-yl)-ethyl]-phenyl}-6-trifluoromethyl-nicotinamide] |
| 0.001 | 0.0008 | CC(C)(C(=O)Nc1ccc(CC[C@H]2COC(N)=N2)cc1)c1ccc(Cl)cc1 [Example 72, N-{4-[2-((S)-2-Amino-4,5-dihydro-oxazol-4-yl)-ethyl]-phenyl}-2-(4-chloro-phenyl)-isobutyramide] |
| 0.0012 | 0.001 | CCOc1cnc(C(=O)Nc2ccc(CC[C@H]3COC(N)=N3)cc2)cn1 [Example 161, (S)-N-(4-(2-(2-Amino-4,5-dihydrooxazol-4-yl)ethyl)phenyl)-5-ethoxypyrazine-2-carboxamide] |
| 0.0061 | 0.004 | NC1=N[C@@H](CCc2ccc(NC(=O)c3cncc(Cl)c3)cc2)CO1 [Example 124, (S)-N-(4-(2-(2-Amino-4,5-dihydrooxazol-4-yl)ethyl)phenyl)-5-chloronicotinamide] |
| 0.0014 | 0.0035 | NC1=N[C@@H](CCc2ccc(NC(=O)C3CC(F)(F)C3)cc2)CO1 [Example 44, 3,3-Difluoro-cyclobutanecarboxylic acid {4-[2-((S)-2-amino-4,5-dihydro-oxazol-4-yl)-ethyl]-phenyl}-amide] |
| 0.0018 | 0.0047 | NC1=N[C@@H](CCc2ccc(NC(=O)c3cncc(Cl)n3)cc2)CO1 [Example 160, (S)-N-(4-(2-(2-Amino-4,5-dihydrooxazol-4-yl)ethyl)phenyl)-6-chloropyrazine-2-carboxamide] |
| 0.0043 | 0.0043 | NC1=N[C@@H](CCc2ccc(NC(=O)c3ccc(Cl)nn3)cc2)CO1 [Example 122, (S)-N-(4-(2-(2-Amino-4,5-dihydrooxazol-4-yl)ethyl)phenyl)-6-chloropyridazine-3-carboxamide] |
| 0.0011 | 0.0051 | NC1=N[C@@H](CCc2ccc(NC(=O)c3ccc4cccnc4n3)cc2)CO1 [Example 105, [1,8]Naphthyridine-2-carboxylic acid {4-[2-((S)-2-amino-4,5-dihydro-oxazol-4-yl)-ethyl]-phenyl}-amide] |
| 0.0035 | 0.0014 | CCOc1cnc(C(=O)Nc2ccc(CC[C@@H]3N=C(N)O[C@H]3C)cc2)cn1 [Example 218, 5-Ethoxy-pyrazine-2-carboxylic acid {4-[2-((4S,5S)-2-amino-5-methyl-4,5-dihydro-oxazol-4-yl)-ethyl]-phenyl}-amide] |
| 0.0003 | 0.0007 | NC1=N[C@@H](CCc2ccc(NC(=O)c3cc(Cl)ccn3)cc2)CO1 [Example 90, 4-Chloro-pyridine-2-carboxylic acid {4-[2-((S)-2-amino-4,5-dihydro-oxazol-4-yl)-ethyl]-phenyl}-amide] |
| 0.0018 | 0.004 | NC1=N[C@@H](CCc2ccc(NC(=O)c3cncc(F)c3)cc2)CO1 [Example 100, N-{4-[2-((S)-2-Amino-4,5-dihydro-oxazol-4-yl)-ethyl]-phenyl}-5-fluoro-nicotinamide] |
| 0.0009 | 0.0094 | NC1=N[C@@H](CCc2ccc(N3CCN(c4ccc(F)cc4)C3=O)cc2)CO1 [Example 56, 1-{4-[2-((S)-2-Amino-4,5-dihydro-oxazol-4-yl)-ethyl]-phenyl}-3-(4-fluoro-phenyl)-imidazolidin-2-one] |
| 0.006 | 0.0073 | NC1=N[C@@H](CCc2ccc(NC(=O)C3(C(F)(F)F)CC3)cc2)CO1 [Example 52, 1-Trifluoromethyl-cyclopropanecarboxylic acid {4-[2-((S)-2-amino-4,5-dihydro-oxazol-4-yl)-ethyl]-phenyl}-amide] |
| 0.0025 | 0.0051 | CCc1nc(C(=O)Nc2ccc(CC[C@H]3COC(N)=N3)cc2)co1 [Example 217, (S)-N-(4-(2-(2-Amino-4,5-dihydrooxazol-4-yl)ethyl)phenyl)-2-ethyloxazole-4-carboxamide] |
| 0.0011 | 0.0014 | NC1=N[C@@H](CCc2ccc(NC(=O)CCc3ccccc3Cl)cc2)CO1 [Example 80, N-{4-[2-((S)-2-Amino-4,5-dihydro-oxazol-4-yl)-ethyl]-phenyl}-3-(2-chloro-phenyl)-propionamide] |
| 0.0048 | 0.0054 | NC1=N[C@@H](CCc2ccc(NC(=O)c3ccc(F)nc3F)cc2)CO1 [Example 110, N-{4-[2-((S)-2-Amino-4,5-dihydro-oxazol-4-yl)-ethyl]-phenyl}-2,6-difluoro-nicotinamide] |
| 0.0009 | 0.0014 | COc1ccc(C(=O)Nc2ccc(CC[C@H]3COC(N)=N3)cc2)nc1Cl [Example 168, (S)-N-(4-(2-(2-Amino-4,5-dihydrooxazol-4-yl)ethyl)phenyl)-6-chloro-5-methoxypicolinamide] |
| 0.0007 | 0.0044 | NC1=N[C@@H](CCc2ccc(NC(=O)c3nc(Cl)ccc3F)cc2)CO1 [Example 89, 6-Chloro-3-fluoro-pyridine-2-carboxylic acid {4-[2-((S)-2-amino-4,5-dihydro-oxazol-4-yl)-ethyl]-phenyl}-amide] |
